Source: patent US20110294721A1, “ANTIMICROBIAL PEPTIDES” (priority 2008, published 2011)
Where two headings read alike, the source gives them in different places. No end group written: not given here.

Experiments:
Escherichia coli (DH5α) = assay type: cell-based
Experimental: (§1) In-vitro inhibition assays were performed in sterile ELISA-plates (Greiner bio-one, Frickenhausen or Nunc, Wiesbaden). Antimicrobial peptides were dissolved in 0.01% acetic acid containing 0.2% BSA and stored at −20° C. For inhibition assays dilutions of peptides ranging from 5 to 500 μg/ml were prepared and 10 μl of each concentration was loaded per well.
(§2) The optical density of bacteria overnight cultures were adjusted to 0.08-0.1 and diluted in BHI-medium (1:1000). 90 μl of this suspension containing about 10^5-10^6 CFU/ml of tested bacteria were added to each well resulting in final peptide concentrations of 0, 0.5, 1, 2, 5, 10, 20, and 50 μg/ml. After incubation for one day at 27° C. growth inhibition of the bacteria was analyzed by a ELISA microplate reader. The lowest concentration, in which there is no observable growth (>90% inhibition) is referred to as minimal inhibitory concentration (MIC).
(§3) In-vitro inhibition assays were performed as described in Example 5 above.

Staphylococcus aureus = assay type: cell-based
Experimental: as §1, §2, §3

[1] = system: Pseudomonas syringae pv. syringae
[2] = system: Staphylococcus epidermidis; assay type: cell-based
Experimental: (§4) In-vitro inhibition assays were performed in sterile ELISA-plates (Greiner bio-one, Frickenhausen or Nunc, Wiesbaden). Antimicrobial peptides were dissolved in 0.01% acetic acid containing 0.2% BSA and stored at −20° C. […] After incubation for one day at 27° C. growth inhibition of the bacteria was analyzed by a ELISA microplate reader.

Klebsiella pneumoniae = assay type: cell-based
Experimental: as §4

Pseudomonas aeruginosa = assay type: cell-based
Experimental: as §4

Yersinia enterocolitica = assay type: cell-based
Experimental: as §4

Klebsiiella oxytoca = assay type: cell-based
Experimental: as §4

Enterobacter cloacae = assay type: cell-based
Experimental: as §4

Xanthomonas vesicatoria [3] = system: Xanthomonas vesicatoria
[4] = system: Pseudomonas syringae pv. tomato
Botrytis cinerea = test: MIC in-vitro inhibition assay, antifungal (Example 2); assay type: cell-based; conditions: complete inhibition of spore germination/mycelial growth; Table 1
Experimental: as §1, with “flat-bottom 96-well plates” for “ELISA-plates”, “Frickenhausen).” for “Frickenhausen or Nunc, Wiesbaden).”, “BSA (500 μg/ml), filter sterilized” for “BSA”, “200” for “500”, “μl (antibacterial assay) or 20 μl (antifungal assay)” for “μl”
(§5) Spores of fungi were collected by water washes of sporulating cultures grown on 2% malt extract agar and spore concentration was determined by microscopy. The concentration of the spores was adjusted to 1.5-2×10^3 spores/ml in 2% malt extract medium and 80 μl of fungal spores were added per well. The final peptide concentrations used in the fungal inhibition assays were 0, 2, 4, 10, 20, 40, and 100 μg/ml. After overnight incubation at room temperature the plate were put on a rotary shaker (300 rpm) for further two days to ensure consistantly growth. Antifungal effects of the peptides were determined by a microplate reader (Altemaria, Fusarium) at OD590 nm or by visual screening of the plates (Bottytis, Cladosporium).
(§6) The lowest peptide concentration leading to complete inhibition of bacterial growth or spore germination/mycelial growth (minimal inhibition concentration, MIC) was determined for each organism-peptide combination. For each peptide concentration two identical inhibition assays were performed.

Cladosporium herbarum = test: as above; assay type: cell-based; conditions: complete inhibition of spore germination/mycelial growth; Table 1
Experimental: as §1, with “flat-bottom 96-well plates” for “ELISA-plates”, “Frickenhausen).” for “Frickenhausen or Nunc, Wiesbaden).”, “BSA (500 μg/ml), filter sterilized” for “BSA”, “200” for “500”, “μl (antibacterial assay) or 20 μl (antifungal assay)” for “μl”
as §5, §6

Alternaria alternata = test: as above; assay type: cell-based; conditions: complete inhibition of spore germination/mycelial growth; Table 1
Experimental: as §1, with “flat-bottom 96-well plates” for “ELISA-plates”, “Frickenhausen).” for “Frickenhausen or Nunc, Wiesbaden).”, “BSA (500 μg/ml), filter sterilized” for “BSA”, “200” for “500”, “μl (antibacterial assay) or 20 μl (antifungal assay)” for “μl”
as §5, §6

Pseudomonas corrugata [5] = system: Pseudomonas corrugata
[6] = system: Pectobacterium carotovorum sub. carotovorum
[7] = system: Clavibacter michiganensis sub. michiganensis; conditions: complete inhibition of bacterial growth; overnight 25° C.; Table 1
Pseudomonas corrugata [8] = conditions: Table 2; for LC (lethal concentration): 100% inhibition after at least 4 days of incubation; for MIC: >90% inhibition, 1-2 days at 25° C.
Experimental: as §1, with “flat-bottom 96-well plates” for “ELISA-plates”, “Frickenhausen).” for “Frickenhausen or Nunc, Wiesbaden).”, “BSA (500 μg/ml), filter sterilized” for “BSA”, “200” for “500”, “μl (antibacterial assay) or 20 μl (antifungal assay)” for “μl”
(§7) Bacteria colonies from overnight agar plate cultures were resuspended into 5 ml LB-medium or HPG-medium (OD600 nm=0.08-0.1) and diluted into LB-medium/HPG-medium (1:100). 90 μl of this suspension containing about 10^5-10^6 CFU/ml of tested bacteria were added to each well resulting in final peptide concentrations of 0, 0.5, 1, 2, 5, 10, and 20 μg/ml. […] The lowest concentration, in which there is no observable growth (>90% inhibition) is referred to as minimal inhibitory concentration (MIC). […] For each peptide concentration two identical inhibition assays were performed.

[9] = system: Clavibacter michiganensis; test: MIC and lethal concentration (LC) assay (Example 3); assay type: cell-based; conditions: Table 2; for LC (lethal concentration): 100% inhibition after at least 4 days of incubation; for MIC: >90% inhibition, 1-2 days at 25° C.
Experimental: as §1, with “flat-bottom 96-well plates” for “ELISA-plates”, “Frickenhausen).” for “Frickenhausen or Nunc, Wiesbaden).”, “BSA (500 μg/ml), filter sterilized” for “BSA”, “200” for “500”, “μl (antibacterial assay) or 20 μl (antifungal assay)” for “μl”
as §7

[10] = system: Pseudomonas syringae pv. syringae; test: as above; assay type: cell-based; conditions: Table 2; for LC (lethal concentration): 100% inhibition after at least 4 days of incubation; for MIC: >90% inhibition, 1-2 days at 25° C.
Experimental: as §1, with “flat-bottom 96-well plates” for “ELISA-plates”, “Frickenhausen).” for “Frickenhausen or Nunc, Wiesbaden).”, “BSA (500 μg/ml), filter sterilized” for “BSA”, “200” for “500”, “μl (antibacterial assay) or 20 μl (antifungal assay)” for “μl”
as §7

[11] = system: Pseudomonas syringae pv. tomato; test: as above; assay type: cell-based; conditions: Table 2; for LC (lethal concentration): 100% inhibition after at least 4 days of incubation; for MIC: >90% inhibition, 1-2 days at 25° C.
Experimental: as §1, with “flat-bottom 96-well plates” for “ELISA-plates”, “Frickenhausen).” for “Frickenhausen or Nunc, Wiesbaden).”, “BSA (500 μg/ml), filter sterilized” for “BSA”, “200” for “500”, “μl (antibacterial assay) or 20 μl (antifungal assay)” for “μl”
as §7

Xanthomonas vesicatoria [12] = test: as above; assay type: cell-based; conditions: Table 2; for LC (lethal concentration): 100% inhibition after at least 4 days of incubation; for MIC: >90% inhibition, 1-2 days at 25° C.
Experimental: as §1, with “flat-bottom 96-well plates” for “ELISA-plates”, “Frickenhausen).” for “Frickenhausen or Nunc, Wiesbaden).”, “BSA (500 μg/ml), filter sterilized” for “BSA”, “200” for “500”, “μl (antibacterial assay) or 20 μl (antifungal assay)” for “μl”
as §7

[13] = system: Pectobacterium carotovorum; test: as above; assay type: cell-based; conditions: Table 2; for LC (lethal concentration): 100% inhibition after at least 4 days of incubation; for MIC: >90% inhibition, 1-2 days at 25° C.
Experimental: as §1, with “flat-bottom 96-well plates” for “ELISA-plates”, “Frickenhausen).” for “Frickenhausen or Nunc, Wiesbaden).”, “BSA (500 μg/ml), filter sterilized” for “BSA”, “200” for “500”, “μl (antibacterial assay) or 20 μl (antifungal assay)” for “μl”
as §7

[14] = system: human immundeficiency virus (HIV); assay type: cell-based; conditions: HeLa cells pre-treated 30 min at 37° C.; red fluorescence after 72 h; read-out: IC50, concentration where the infection is decreased by 50% (compared to non-treated controls)
Experimental: Cells were pretreated with 6.3 μg/ml SP13-3 and SP13-14 or buffer for 30 min at 37° C. before addition of virus particles. […] Shown is an overlay of pictures taken under transmitted light and fluorescence after 72 hours incubation. The viability of the HeLa cells was determined by measuring the activity of the mitochondrial dehydrogenase.
To measure the activity of the designed oligopeptides against human immundeficiency virus (HIV) a fluorescence-based reporter system was used. HeLa cells (LC5-RIC) harbour a reporter gene, which regulates in dependency of HIV Rev and Tat proteins the synthesis of a red fluorescing protein. In this way the infection of the HeLa cells (LC5-RIC) is indicated and the infection rate can be quantified using a fluorescence microplate reader.
(§8) Antimicrobial oligopeptides were dissolved in 0.01% acetic acid containing 0.2% BSA (500 μg/ml), filter sterilized and stored at −20° C. […] (in 5% CO2). Afterwards, virus particles were added to the pre-treated HeLa cells and the infection was quantified by measuring red fluorescence with a fluorescence microplate reader after 72 h incubation. The viability of the HeLa cells was determined by measuring the activity of the mitochondrial dehydrogenase according to Lindl and Bauer (1994) and Mosmann (1983).

HeLa cells (LC5-RIC) = assay type: cell-based, human
Experimental: as §8

Xylella fastidiosa = conditions: reported by Kuzina et al (2006); cited from earlier work
[15] = complete inhibition of bacterial growth, overnight 25° C., Table 1

| Substance | Minimal inhibition concentration (MIC) [1, 15] [µg/mL] | Minimal inhibition concentration (MIC) (Xanthomonas vesicatoria [3]; [15]) [µg/mL] | Minimal inhibition concentration (MIC) [4, 15] [µg/mL] | Minimal inhibition concentration (MIC) (Botrytis cinerea) [µg/mL] | Minimal inhibition concentration (MIC) (Cladosporium herbarum) [µg/mL] | Minimal inhibition concentration (MIC) (Alternaria alternata) [µg/mL] | Minimal inhibition concentration (MIC) (Pseudomonas corrugata [5]; [15]) [µg/mL] | Minimal inhibition concentration (MIC) [6, 15] [µg/mL] | Minimal inhibition concentration (MIC) [7] [µg/mL] | LC (lethal concentration) (Pseudomonas corrugata [8]) | MIC (Pseudomonas corrugata [8]) | LC (lethal concentration) [9] [µg/mL] | MIC [9] [µg/mL] | LC (lethal concentration) [10] | MIC [10] | LC (lethal concentration) [11] | MIC [11] | LC (lethal concentration) (Xanthomonas vesicatoria [12]) [µg/mL] | MIC (Xanthomonas vesicatoria [12]) [µg/mL] | LC (lethal concentration) [13] | further results |
| --- | --- | --- | --- | --- | --- | --- | --- | --- | --- | --- | --- | --- | --- | --- | --- | --- | --- | --- | --- | --- | --- |
| KRRLAAFRAFRGALKSVLKK-NH2 [SP16] | 5 | 5 | 5 | >100 | 20 | >100 | 2.5 | >40 |  |  |  |  |  |  |  |  |  |  |  |  | Activity against human pathogens (MIC) (Escherichia coli (DH5α)): 10 µg/mL; Activity against human pathogens (MIC) (Staphylococcus aureus): >50 µg/mL; Activity against human pathogens (MIC) [2]: 20 µg/mL; Activity against human pathogens (MIC) (Klebsiella pneumoniae): >50 µg/mL; Activity against human pathogens (MIC) (Pseudomonas aeruginosa): >50 µg/mL; Activity against human pathogens (MIC) (Yersinia enterocolitica): >50 µg/mL; Activity against human pathogens (MIC) (Klebsiiella oxytoca): >50 µg/mL; Activity against human pathogens (MIC) (Enterobacter cloacae): >50 µg/mL |
| KRRLIARILRLAARALVKKR (also: D-amino acids at unstated positions) [SP13-D] | 2.5 | 2 | 1 | >40 | 5 | 20 | 40 | >40 | 10 |  |  |  |  |  |  |  |  |  |  |  |  |
| KRRLIARILRLAARALVKKR-NH2 [SP13] |  |  |  | >100 | 20 | >100 |  |  | 2.5 | 1.0 µg/mL | 0.25 µg/mL | 1.0 | 0.25 | 0.5/0.5 μg/ml | 0.5/0.5 μg/ml | 5.0/5.0 μg/ml | 5.0/5.0 μg/ml | 0.5 | 0.1 | 10/>10 μg/ml | Minimal inhibition concentration (MIC) [1]: 10 µg/mL; Minimal inhibition concentration (MIC) (Xanthomonas vesicatoria [3]): 2.5 µg/mL; Minimal inhibition concentration (MIC) [4]: 20 µg/mL; Minimal inhibition concentration (MIC) (Pseudomonas corrugata [5]): 2.5 µg/mL; MIC [13]: 10/>10 μg/ml; Minimal inhibition concentration (MIC) [6]: >40 µg/mL |
| KRRLILRILRLAIRILVKKR-NH2 [SP13-3] |  |  |  |  |  |  |  |  |  | >10/>10 μg/ml | >10/>10 μg/ml | 10 | 2.5 | >10/>10 μg/ml | >10/>10 μg/ml | 10/10 μg/ml | 10/10 μg/ml | 10 | 2.5 | >10/>10 μg/ml | IC50 [14]: 2100 nM; negative/toxic effect on test cells (HeLa cells) (HeLa cells (LC5-RIC)): No negative/toxic effect; MIC [13]: >10/>10 μg/ml |
| Magainin-2 |  |  |  |  |  |  |  |  |  |  |  |  |  |  |  |  |  |  |  |  | activity against Xylella fastidiosa (Xylella fastidiosa): active |
